Measurements: patent publication US10472358B2, “1H-pyrrolo[2,3-c]pyridin-7(6H)-ones and pyrazolo[3,4-c]pyridin-7(6H)-ones as inhibitors of BET proteins” (Incyte Corporation, priority 2014, dated 2019)

What follows are compounds tested on KMS.12.BM cells (assay: KMS.12.BM cell viability assay (Cell Titer-GLO, ATP quantitation)). Conditions: KMS-12-BM, 72 h; human myeloma cells, 3 days, concentration required for 50% cell death.
Assay type: cell-based
Experimental: Example B1: KMS.12.BM Cell Viability Assay
KMS.12.BM cell line (human myeloma) was purchased from JCRB (Osaka, Japan) and maintained in RPMI with 10% FBS culture medium. To measure the cytotoxic activity of the compounds through ATP quantitation, the KMS.12.BM cells are plated in the RPMI culture medium at 5000 cells/well/per 100 μL into a 96-well polystyrene clear black tissue culture plate (Greiner-bio-one through VWR, NJ), in the presence or absence of a concentration range of test compounds. After 3 days, […] Cell Titer-GLO Luminescent (Promega, Madison, Wis.) cell culture agent is added to each well for 10 minutes at room temperature to stabilize the luminescent signal. This determines the number of viable cells in culture based on quantitation of the ATP present, which signals the presence of metabolically active cells. Luminescence is measured with the Top Count 384 (Packard Bioscience through Perkin Elmer, Boston, Mass.). Compound inhibition is determined relative to cells cultured with no drug and the IC50 is reported as the compound concentration required for 50% cell death.

Structure (SMILES) | IC50
CC(C)C1Oc2c(cc(S(=O)(=O)N(C)C)cc2-c2cn(C)c(=O)c3[nH]ccc23)NC1=O (centres unmarked) [Example 67, 2-isopropyl-N,N-dimethyl-8-(6-methyl-7-oxo-6,7-dihydro-1H-pyrrolo[2,3-c]pyridin-4-yl)-3-oxo-3,4-dihydro-2H-1,4-benzoxazine-6-sulfonamide] | ≤ 1000 nM
COCc1cc2c(c(-c3cn(C)c(=O)c4[nH]ccc34)c1)OC(C(C)C)C(=O)N2 (centres unmarked) [Example 37, 2-isopropyl-6-(methoxymethyl)-8-(6-methyl-7-oxo-6,7-dihydro-1H-pyrrolo[2,3-c]pyridin-4-yl)-2H-1,4-benzoxazin-3(4H)-one] | ≤ 1000 nM
CC(C)C1Oc2c(-c3cn(C)c(=O)c4[nH]ccc34)cc(S(C)(=O)=O)cc2N(C)C1=O (centres unmarked) [Example 47, 2-isopropyl-4-methyl-8-(6-methyl-7-oxo-6,7-dihydro-1H-pyrrolo[2,3-c]pyridin-4-yl)-6-(methylsulfonyl)-2H-1,4-benzoxazin-3(4H)-one] | ≤ 1000 nM
COc1cc(-c2cn(C)c(=O)c3[nH]ccc23)c2c(c1)N(C(C)C)C(=O)C(C(C)C)O2 (centres unmarked) [Example 16, 2,4-diisopropyl-6-methoxy-8-(6-methyl-7-oxo-6,7-dihydro-1H-pyrrolo[2,3-c]pyridin-4-yl)-2H-1,4-benzoxazin-3(4H)-one] | ≤ 1000 nM
COc1cc2c(c(-c3cn(C)c(=O)c4[nH]ccc34)c1)OC(C)(C)C(=O)N2 [Example 27, 6-methoxy-2,2-dimethyl-8-(6-methyl-7-oxo-6,7-dihydro-1H-pyrrolo[2,3-c]pyridin-4-yl)-2H-1,4-benzoxazin-3(4H)-one] | ≤ 1000 nM
COc1cc2c(c(-c3cn(C)c(=O)c4[nH]ccc34)c1)OC(C1CCCC1)C(=O)N2 (centres unmarked) [Example 35, 2-cyclopentyl-6-methoxy-8-(6-methyl-7-oxo-6,7-dihydro-1H-pyrrolo[2,3-c]pyridin-4-yl)-2H-1,4-benzoxazin-3(4H)-one] | ≤ 1000 nM
CC(C)C1Oc2c(cc(C(N)=O)cc2-c2cn(C)c(=O)c3[nH]ccc23)NC1=O (centres unmarked) [Example 41, 2-isopropyl-8-(6-methyl-7-oxo-6,7-dihydro-1H-pyrrolo[2,3-c]pyridin-4-yl)-3-oxo-3,4-dihydro-2H-1,4-benzoxazine-6-carboxamide] | ≤ 1000 nM
Cn1cc(-c2cc(S(C)(=O)=O)cc3c2NC2(CCC2)C(=O)N3)c2cc[nH]c2c1=O [Example 62, 8′-(6-methyl-7-oxo-6,7-dihydro-1H-pyrrolo[2,3-c]pyridin-4-yl)-6′-(methylsulfonyl)-1′,4′-dihydro-3′H-spiro[cyclobutane-1,2′-quinoxalin]-3′-one] | ≤ 1000 nM
CN1C(=O)C2(CC2)Oc2c(-c3cn(C)c(=O)c4[nH]ccc34)cc(S(C)(=O)=O)cc21 [Example 63, 4-methyl-8-(6-methyl-7-oxo-6,7-dihydro-1H-pyrrolo[2,3-c]pyridin-4-yl)-6-(methylsulfonyl)spiro[1,4-benzoxazine-2,1′-cyclopropan]-3(4H)-one] | ≤ 1000 nM
COc1cc2c(c(-c3cn(C)c(=O)c4[nH]ccc34)c1)OC(c1ccccc1)C(=O)N2 (centres unmarked) [Example 24, 6-methoxy-8-(6-methyl-7-oxo-6,7-dihydro-1H-pyrrolo[2,3-c]pyridin-4-yl)-2-phenyl-2H-1,4-benzoxazin-3(4H)-one] | ≤ 1000 nM
CN1C(=O)C(C)(C)Oc2c(-c3cn(C)c(=O)c4[nH]ccc34)cc(S(C)(=O)=O)cc21 [Example 75, 2,2,4-trimethyl-8-(6-methyl-7-oxo-6,7-dihydro-1H-pyrrolo[2,3-c]pyridin-4-yl)-6-(methylsulfonyl)-2H-1,4-benzoxazin-3(4H)-one] | ≤ 1000 nM
Cn1cc(-c2cc(S(C)(=O)=O)cc3c2NC2(CCCCC2)C(=O)N3)c2cc[nH]c2c1=O [Example 64, 8′-(6-methyl-7-oxo-6,7-dihydro-1H-pyrrolo[2,3-c]pyridin-4-yl)-6′-(methylsulfonyl)-1′,4′-dihydro-3′H-spiro[cyclohexane-1,2′-quinoxalin]-3′-one] | ≤ 1000 nM
CC(O)c1cc(-c2cn(C)c(=O)c3[nH]ccc23)c2c(c1)N(C)C(=O)C(C)(C)O2 (single isomer, unassigned) [Example 83A, 6-(1-hydroxyethyl)-2,2,4-trimethyl-8-(6-methyl-7-oxo-6,7-dihydro-1H-pyrrolo[2,3-c]pyridin-4-yl)-2H-1,4-benzoxazin-3(4H)-one] | ≤ 1000 nM
CCS(=O)(=O)c1cc(-c2cn(C)c(=O)c3[nH]ccc23)c2c(c1)N(C)C(=O)C(C)(C)O2 [Example 76, 6-(ethylsulfonyl)-2,2,4-trimethyl-8-(6-methyl-7-oxo-6,7-dihydro-1H-pyrrolo[2,3-c]pyridin-4-yl)-2H-1,4-benzoxazin-3(4H)-one] | ≤ 1000 nM
CC(C)C1Oc2c(cc([N+](=O)[O-])cc2-c2cn(C)c(=O)c3[nH]ccc23)NC1=O (centres unmarked) [Example 21, 2-isopropyl-8-(6-methyl-7-oxo-6,7-dihydro-1H-pyrrolo[2,3-c]pyridin-4-yl)-6-nitro-2H-1,4-benzoxazin-3(4H)-one] | ≤ 1000 nM
CC(C)C1Oc2c(cc(S(=O)(=O)C(C)C)cc2-c2cn(C)c(=O)c3[nH]ccc23)NC1=O (centres unmarked) [Example 52, 2-isopropyl-6-(isopropylsulfonyl)-8-(6-methyl-7-oxo-6,7-dihydro-1H-pyrrolo[2,3-c]pyridin-4-yl)-2H-1,4-benzoxazin-3(4H)-one] | ≤ 1000 nM
CNC(=O)c1cc2c(c(-c3cn(C)c(=O)c4[nH]ccc34)c1)OC(C(C)C)C(=O)N2 (centres unmarked) [Example 20, 2-isopropyl-N-methyl-8-(6-methyl-7-oxo-6,7-dihydro-1H-pyrrolo[2,3-c]pyridin-4-yl)-3-oxo-3,4-dihydro-2H-1,4-benzoxazine-6-carboxamide] | ≤ 1000 nM
Cn1cc(-c2cccc3c2OC(C2CCOCC2)C(=O)N3)c2cc[nH]c2c1=O (centres unmarked) [Example 7, 8-(6-methyl-7-oxo-6,7-dihydro-1H-pyrrolo[2,3-c]pyridin-4-yl)-2-(tetrahydro-2H-pyran-4-yl)-2H-1,4-benzoxazin-3(4H)-one] | ≤ 1000 nM
CC(C)C1Oc2c(cc(-c3cnn(C)c3)cc2-c2cn(C)c(=O)c3[nH]ccc23)NC1=O (centres unmarked) [Example 28, 2-isopropyl-8-(6-methyl-7-oxo-6,7-dihydro-1H-pyrrolo[2,3-c]pyridin-4-yl)-6-(1-methyl-1H-pyrazol-4-yl)-2H-1,4-benzoxazin-3(4H)-one] | ≤ 1000 nM
CC(C)[C@H]1Nc2c(cc(S(C)(=O)=O)cc2-c2cn(C)c(=O)c3[nH]ccc23)NC1=O [Example 61, (3R)-3-isopropyl-5-(6-methyl-7-oxo-6,7-dihydro-1H-pyrrolo[2,3-c]pyridin-4-yl)-7-(methylsulfonyl)-3,4-dihydroquinoxalin-2(1H)-one] | ≤ 1000 nM
CCS(=O)(=O)c1cc2c(c(-c3cn(C)c(=O)c4[nH]ccc34)c1)OC(C(C)C)C(=O)N2 (centres unmarked) [Example 51, 6-(ethylsulfonyl)-2-isopropyl-8-(6-methyl-7-oxo-6,7-dihydro-1H-pyrrolo[2,3-c]pyridin-4-yl)-2H-1,4-benzoxazin-3(4H)-one] | ≤ 1000 nM
CC(C)NS(=O)(=O)c1cc2c(c(-c3cn(C)c(=O)c4[nH]ccc34)c1)OC(C)(C)C(=O)N2 [Example 74, N-isopropyl-2,2-dimethyl-8-(6-methyl-7-oxo-6,7-dihydro-1H-pyrrolo[2,3-c]pyridin-4-yl)-3-oxo-3,4-dihydro-2H-1,4-benzoxazine-6-sulfonamide] | ≤ 1000 nM
COc1cc2c(c(-c3cn(C)c(=O)c4[nH]ccc34)c1)OC(C(C)C)C(=O)N2 (centres unmarked) [Example 9, 2-isopropyl-6-methoxy-8-(6-methyl-7-oxo-6,7-dihydro-1H-pyrrolo[2,3-c]pyridin-4-yl)-2H-1,4-benzoxazin-3(4H)-one] | ≤ 1000 nM
CC(C)C1Oc2c(-c3cn(C)c(=O)c4[nH]ccc34)cc(S(C)(=O)=O)cc2N(C)C1=O (single isomer, unassigned) [Example 47A, 2-isopropyl-4-methyl-8-(6-methyl-7-oxo-6,7-dihydro-1H-pyrrolo[2,3-c]pyridin-4-yl)-6-(methylsulfonyl)-2H-1,4-benzoxazin-3(4H)-one] | ≤ 1000 nM
CC(C)S(=O)(=O)c1cc2c(c(-c3cn(C)c(=O)c4[nH]ccc34)c1)OC(C)(C)C(=O)N2 [Example 79, 6-(isopropylsulfonyl)-2,2-dimethyl-8-(6-methyl-7-oxo-6,7-dihydro-1H-pyrrolo[2,3-c]pyridin-4-yl)-2H-1,4-benzoxazin-3(4H)-one] | ≤ 1000 nM
CC(=O)NCc1cc2c(c(-c3cn(C)c(=O)c4[nH]ccc34)c1)OC(C(C)C)C(=O)N2 (centres unmarked) [Example 40, N-{[2-isopropyl-8-(6-methyl-7-oxo-6,7-dihydro-1H-pyrrolo[2,3-c]pyridin-4-yl)-3-oxo-3,4-dihydro-2H-1,4-benzoxazin-6-yl]methyl}acetamide] | ≤ 1000 nM
Cn1cc(-c2cc(S(C)(=O)=O)cc3c2OC(C)(C)C(=O)N3)c2cc[nH]c2c1=O [Example 45, 2,2-dimethyl-8-(6-methyl-7-oxo-6,7-dihydro-1H-pyrrolo[2,3-c]pyridin-4-yl)-6-(methylsulfonyl)-2H-1,4-benzoxazin-3(4H)-one] | ≤ 1000 nM

Same assay, conditions: human myeloma cells, 3 days, concentration required for 50% cell death

Structure (SMILES) | IC50
COc1cc2c(c(-c3cn(C)c(=O)c4[nH]ccc34)c1)OC(C1CCCC1)C(=O)N2 (single isomer, unassigned) [Example 35B, 2-Cyclopentyl-6-methoxy-8-(6-methyl-7-oxo-6,7-dihydro-1H-pyrrolo[2,3-c]pyridin-4-yl)-2H-1,4-benzoxazin-3(4H)-one] | ≤ 1000 nM
CC(C)C1Oc2c(cc(S(C)(=O)=O)cc2-c2cn(C)c(=O)c3[nH]ccc23)NC1=O (single isomer, unassigned) [Example 44B, 2-isopropyl-8-(6-methyl-7-oxo-6,7-dihydro-1H-pyrrolo[2,3-c]pyridin-4-yl)-6-(methylsulfonyl)-2H-1,4-benzoxazin-3(4H)-one] | ≤ 1000 nM
